How the values were obtained:
WEE1 = target: T1, WEE1 (Homo sapiens, UniProt P30291+Q96SW2); test: Western-blot assay of substrate protein degradation in hPBMCs, WEE1; type: cell-based; conditions: 24 hours of compound treatment, compounds tested at 50 nM and 500 nM (concentration of the table not stated)
T1 construct: endogenous in cells; host or cells: hPBMCs (Milecell Biotechnologies)

IKZF1 = target: T2, IKZF1 (Homo sapiens, UniProt Q13422+Q96SW2); test: Western-blot assay of substrate protein degradation in hPBMCs, IKZF1; type: cell-based; conditions: 24 hours of compound treatment, compounds tested at 50 nM and 500 nM (concentration of the table not stated)
T2 construct: endogenous in cells; host or cells: hPBMCs (Milecell Biotechnologies)

IKZF2 = target: T3, IKZF2 (Homo sapiens, UniProt Q96SW2+Q9UKS7); test: Western-blot assay of substrate protein degradation in hPBMCs, IKZF2; type: cell-based; conditions: 24 hours of compound treatment, compounds tested at 50 nM and 500 nM (concentration of the table not stated)
T3 construct: endogenous in cells; host or cells: hPBMCs (Milecell Biotechnologies)

IKZF3 = target: T4, IKZF3 (Homo sapiens, UniProt Q96SW2+Q9UKT9); test: Western-blot assay of substrate protein degradation in hPBMCs, IKZF3; type: cell-based; conditions: 24 hours of compound treatment, compounds tested at 50 nM and 500 nM (concentration of the table not stated)
T4 construct: endogenous in cells; host or cells: hPBMCs (Milecell Biotechnologies)

CK1α = target: T5, CK1α (Homo sapiens, UniProt P48729+Q96SW2); test: Western-blot assay of substrate protein degradation in hPBMCs, CK1α; type: cell-based; conditions: 24 hours of compound treatment, compounds tested at 50 nM and 500 nM (concentration of the table not stated)
T5 construct: endogenous in cells; host or cells: hPBMCs (Milecell Biotechnologies)

GSPT1 = target: T6, GSPT1 (Homo sapiens, UniProt P15170+Q96SW2); test: Western-blot assay of substrate protein degradation in hPBMCs, GSPT1; type: cell-based; conditions: 24 hours of compound treatment, compounds tested at 50 nM and 500 nM (concentration of the table not stated)
T6 construct: endogenous in cells; host or cells: hPBMCs (Milecell Biotechnologies)

[1] = target: T7, human Cereblon WT GST-tagged protein (Homo sapiens, UniProt Q96SW2); test: CRBN-binding affinity by HTRF (CEREBLON BINDING kit); conditions: HTRF inhibitory activity, CEREBLON BINDING kit; read-out: HTRF IC50
T7 construct: purchased CISBIO 64BDCRBNPEH

MM.1R = test: Tumor cell proliferation inhibition (CellTiter-Meiluncell Luminescent Cell Viability Assay), MM.1R; conditions: Homo sapiens, 96 h, read-out: inhibitory activity (IC50, nM) against tumor cells proliferation, MM.1R
Jurkat = test: Tumor cell proliferation inhibition (CellTiter-Meiluncell Luminescent Cell Viability Assay), Jurkat; conditions: Homo sapiens, 96 h, read-out: inhibitory activity (IC50, nM) against tumor cells proliferation, Jurkat
CAL-62 = test: Tumor cell proliferation inhibition (CellTiter-Meiluncell Luminescent Cell Viability Assay), CAL-62; conditions: Homo sapiens, CAL-62, 96 h, read-out: inhibitory activity (IC50, nM) against tumor cells proliferation, CAL-62
[2] = system: Human acute T lymphocytic leukemia cells (Molt-4); test: Tumor cell proliferation inhibition (CellTiter-Meiluncell Luminescent Cell Viability Assay), Molt-4; conditions: MOLT-4, 96 h, read-out: inhibitory activity (IC50, nM) against tumor cells proliferation, Molt 4
NCI-H1975 = test: Tumor cell proliferation inhibition (CellTiter-Meiluncell Luminescent Cell Viability Assay), NCI-H1975; conditions: Homo sapiens, NCI-H1975, 96 h, read-out: inhibitory activity (IC50, nM) against tumor cells proliferation, H1975
[3] = system: Human breast cancer cells (MDA-MB-231); test: Tumor cell proliferation inhibition (CellTiter-Meiluncell Luminescent Cell Viability Assay), MDA-MB-231; conditions: MDA-MB-231, 96 h, read-out: inhibitory activity (IC50, nM) against tumor cells proliferation, MDA-MB-231

T4 sequence (Q9UKT9 whole entry): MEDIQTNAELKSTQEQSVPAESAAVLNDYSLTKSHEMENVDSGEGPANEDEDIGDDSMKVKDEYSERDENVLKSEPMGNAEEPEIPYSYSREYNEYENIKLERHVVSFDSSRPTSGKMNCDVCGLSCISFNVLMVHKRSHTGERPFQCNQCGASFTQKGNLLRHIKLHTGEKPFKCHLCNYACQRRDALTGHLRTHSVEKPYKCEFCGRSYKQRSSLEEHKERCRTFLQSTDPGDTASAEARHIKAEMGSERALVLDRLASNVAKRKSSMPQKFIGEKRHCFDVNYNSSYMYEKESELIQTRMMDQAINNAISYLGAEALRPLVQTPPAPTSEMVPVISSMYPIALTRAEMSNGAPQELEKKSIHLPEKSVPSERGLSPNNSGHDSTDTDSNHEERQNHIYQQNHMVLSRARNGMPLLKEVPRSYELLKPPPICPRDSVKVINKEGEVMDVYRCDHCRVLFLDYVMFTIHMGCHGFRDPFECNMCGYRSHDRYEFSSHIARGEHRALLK
T4 sequence (Q96SW2 whole entry): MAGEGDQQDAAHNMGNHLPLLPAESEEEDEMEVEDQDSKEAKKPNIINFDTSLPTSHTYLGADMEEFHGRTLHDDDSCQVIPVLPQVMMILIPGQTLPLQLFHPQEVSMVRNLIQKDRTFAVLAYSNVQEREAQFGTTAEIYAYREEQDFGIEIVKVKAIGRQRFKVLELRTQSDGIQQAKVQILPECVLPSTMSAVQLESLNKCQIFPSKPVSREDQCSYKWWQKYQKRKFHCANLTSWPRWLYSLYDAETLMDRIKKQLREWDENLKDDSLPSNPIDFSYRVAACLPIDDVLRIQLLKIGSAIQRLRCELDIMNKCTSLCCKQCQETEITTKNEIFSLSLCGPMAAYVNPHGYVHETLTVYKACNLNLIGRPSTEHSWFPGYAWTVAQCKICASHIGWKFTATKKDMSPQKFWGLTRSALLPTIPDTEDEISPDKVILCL
T4 sequence (Q16531 whole entry partner): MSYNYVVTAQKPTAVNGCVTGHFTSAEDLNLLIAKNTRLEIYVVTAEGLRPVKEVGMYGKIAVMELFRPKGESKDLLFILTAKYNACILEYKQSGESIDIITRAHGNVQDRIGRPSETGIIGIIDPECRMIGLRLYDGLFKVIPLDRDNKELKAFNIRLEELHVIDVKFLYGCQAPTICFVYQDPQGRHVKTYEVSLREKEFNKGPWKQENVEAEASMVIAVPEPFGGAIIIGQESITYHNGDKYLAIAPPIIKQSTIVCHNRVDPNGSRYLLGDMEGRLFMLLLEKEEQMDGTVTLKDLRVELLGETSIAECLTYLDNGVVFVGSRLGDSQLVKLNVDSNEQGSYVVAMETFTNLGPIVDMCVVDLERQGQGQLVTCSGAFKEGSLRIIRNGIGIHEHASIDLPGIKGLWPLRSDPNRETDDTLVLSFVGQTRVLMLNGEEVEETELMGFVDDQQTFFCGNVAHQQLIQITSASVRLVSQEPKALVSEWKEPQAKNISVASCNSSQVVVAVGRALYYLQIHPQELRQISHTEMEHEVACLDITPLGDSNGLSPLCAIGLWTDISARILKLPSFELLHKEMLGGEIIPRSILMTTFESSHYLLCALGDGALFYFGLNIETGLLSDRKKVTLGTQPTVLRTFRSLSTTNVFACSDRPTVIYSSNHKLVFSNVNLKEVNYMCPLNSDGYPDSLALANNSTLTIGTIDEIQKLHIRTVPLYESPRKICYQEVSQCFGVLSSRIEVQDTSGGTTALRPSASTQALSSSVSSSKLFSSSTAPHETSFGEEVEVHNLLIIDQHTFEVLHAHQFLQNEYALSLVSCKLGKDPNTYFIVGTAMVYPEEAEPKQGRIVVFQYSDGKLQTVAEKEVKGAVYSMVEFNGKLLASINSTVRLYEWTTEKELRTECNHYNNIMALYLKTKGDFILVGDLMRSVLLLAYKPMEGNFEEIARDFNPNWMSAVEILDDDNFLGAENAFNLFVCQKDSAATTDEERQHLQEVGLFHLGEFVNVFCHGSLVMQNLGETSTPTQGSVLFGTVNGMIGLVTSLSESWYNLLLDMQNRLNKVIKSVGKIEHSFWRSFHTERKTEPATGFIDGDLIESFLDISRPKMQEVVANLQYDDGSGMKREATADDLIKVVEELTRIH
T6 sequence (P15170 whole entry): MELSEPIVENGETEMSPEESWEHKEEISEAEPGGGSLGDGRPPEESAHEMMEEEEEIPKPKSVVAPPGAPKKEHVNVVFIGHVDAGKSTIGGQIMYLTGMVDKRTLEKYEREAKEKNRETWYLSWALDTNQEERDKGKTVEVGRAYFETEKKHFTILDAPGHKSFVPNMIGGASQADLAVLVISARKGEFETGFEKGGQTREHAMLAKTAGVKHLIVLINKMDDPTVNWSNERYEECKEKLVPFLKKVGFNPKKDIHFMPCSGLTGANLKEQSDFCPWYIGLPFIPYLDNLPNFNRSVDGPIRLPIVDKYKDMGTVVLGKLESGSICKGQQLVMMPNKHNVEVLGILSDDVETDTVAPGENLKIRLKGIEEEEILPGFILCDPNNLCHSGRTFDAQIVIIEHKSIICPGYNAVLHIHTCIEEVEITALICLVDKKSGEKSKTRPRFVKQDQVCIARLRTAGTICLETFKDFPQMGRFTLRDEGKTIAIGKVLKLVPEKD
T6 sequence (Q96SW2 whole entry): as the sequence (Q96SW2 whole entry) above
T6 sequence (Q16531 whole entry partner): as the sequence (Q16531 whole entry partner) above
T3 sequence (Q9UKS7 whole entry): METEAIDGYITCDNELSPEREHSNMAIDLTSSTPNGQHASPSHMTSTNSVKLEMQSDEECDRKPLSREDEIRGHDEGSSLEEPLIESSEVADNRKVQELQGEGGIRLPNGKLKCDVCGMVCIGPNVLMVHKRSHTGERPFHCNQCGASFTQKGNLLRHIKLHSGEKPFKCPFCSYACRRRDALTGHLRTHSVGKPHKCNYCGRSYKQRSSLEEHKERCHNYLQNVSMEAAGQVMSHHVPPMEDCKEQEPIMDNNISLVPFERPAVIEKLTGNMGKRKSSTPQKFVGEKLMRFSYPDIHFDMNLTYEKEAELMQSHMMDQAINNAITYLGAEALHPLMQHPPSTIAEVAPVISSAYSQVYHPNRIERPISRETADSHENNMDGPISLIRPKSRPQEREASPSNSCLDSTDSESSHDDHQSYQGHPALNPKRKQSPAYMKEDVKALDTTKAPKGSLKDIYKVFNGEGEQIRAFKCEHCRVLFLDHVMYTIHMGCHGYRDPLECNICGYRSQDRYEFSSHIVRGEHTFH
T3 sequence (Q96SW2 whole entry): as the sequence (Q96SW2 whole entry) above
T3 sequence (Q16531 whole entry partner): as the sequence (Q16531 whole entry partner) above
T1 sequence (P30291 whole entry): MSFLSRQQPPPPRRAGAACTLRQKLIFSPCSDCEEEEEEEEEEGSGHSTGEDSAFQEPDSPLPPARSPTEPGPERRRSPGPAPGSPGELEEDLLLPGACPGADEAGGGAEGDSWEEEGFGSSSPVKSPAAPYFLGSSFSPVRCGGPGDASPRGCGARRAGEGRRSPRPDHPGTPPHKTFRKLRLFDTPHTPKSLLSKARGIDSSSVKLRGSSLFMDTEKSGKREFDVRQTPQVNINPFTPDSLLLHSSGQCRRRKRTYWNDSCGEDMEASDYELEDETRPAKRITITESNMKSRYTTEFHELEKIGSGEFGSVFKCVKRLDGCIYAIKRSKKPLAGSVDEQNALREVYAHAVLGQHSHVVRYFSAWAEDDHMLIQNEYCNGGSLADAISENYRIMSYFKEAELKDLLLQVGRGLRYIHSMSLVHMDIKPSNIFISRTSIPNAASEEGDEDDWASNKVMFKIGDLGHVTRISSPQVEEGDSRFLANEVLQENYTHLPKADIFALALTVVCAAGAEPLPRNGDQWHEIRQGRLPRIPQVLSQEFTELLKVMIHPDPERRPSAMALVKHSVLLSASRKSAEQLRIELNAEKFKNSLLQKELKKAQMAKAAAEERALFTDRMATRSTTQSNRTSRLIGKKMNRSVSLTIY
T1 sequence (Q96SW2 whole entry): as the sequence (Q96SW2 whole entry) above
T1 sequence (Q16531 whole entry partner): as the sequence (Q16531 whole entry partner) above
T2 sequence (Q13422 whole entry): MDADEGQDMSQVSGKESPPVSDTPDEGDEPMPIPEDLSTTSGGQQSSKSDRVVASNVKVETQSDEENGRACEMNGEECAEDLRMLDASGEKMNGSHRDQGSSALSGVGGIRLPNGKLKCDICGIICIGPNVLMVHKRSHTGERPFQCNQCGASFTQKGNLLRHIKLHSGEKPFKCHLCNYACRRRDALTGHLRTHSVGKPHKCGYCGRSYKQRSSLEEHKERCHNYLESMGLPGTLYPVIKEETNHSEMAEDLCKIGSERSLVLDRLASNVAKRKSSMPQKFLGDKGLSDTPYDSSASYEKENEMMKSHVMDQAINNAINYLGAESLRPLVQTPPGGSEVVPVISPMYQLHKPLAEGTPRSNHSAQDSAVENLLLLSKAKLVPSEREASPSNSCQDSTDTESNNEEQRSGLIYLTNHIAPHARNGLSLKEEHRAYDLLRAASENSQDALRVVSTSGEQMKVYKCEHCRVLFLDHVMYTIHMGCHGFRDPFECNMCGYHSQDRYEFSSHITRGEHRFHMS
T2 sequence (Q96SW2 whole entry): as the sequence (Q96SW2 whole entry) above
T2 sequence (Q16531 whole entry partner): as the sequence (Q16531 whole entry partner) above
T7 sequence (Q96SW2 whole entry): as the sequence (Q96SW2 whole entry) above

SMILES	Weel substrate protein remaining % (WEE1)	IKZF 1 substrate protein remaining % (IKZF1)	IKZF2 substrate protein remaining % (IKZF2)	IKZF3 substrate protein remaining % (IKZF3)	CK1a substrate protein remaining % (CK1α)	GSPT1 substrate protein remaining % (GSPT1)	IC50 [1]	IC50 (MM.1R)	IC50 (Jurkat)	IC50 (CAL-62)	IC50 [2]	IC50 (NCI-H1975)	IC50 [3]
O=C1CCC(N2Cc3cc(CN4CCN(c5cccc(F)c5F)CC4)ccc3C2=O)C(=O)N1 (centres unmarked) [GT-04515, 3-(5-((4-(2,3-difluorophenyl)piperazin-1-yl)methyl)-1-oxoisoindolin-2-yl)piperidine-2,6-dione]	A (0% ≤ substrate protein remaining % ≤ 80%)	A (0% ≤ substrate protein remaining % ≤ 80%)	A (0% ≤ substrate protein remaining % ≤ 80%)	A (0% ≤ substrate protein remaining % ≤ 80%)	A (0% ≤ substrate protein remaining % ≤ 80%)	A (0% ≤ substrate protein remaining % ≤ 80%)	0.5 to 1 µM	5 to 10 nM	50 to 100 nM	10 to 50 nM	5 to 10 nM	50 to 100 nM	50 to 100 nM
O=C1CCC(N2Cc3cc(CN4CCN(c5cccc(Cl)c5Cl)CC4)c(F)cc3C2=O)C(=O)N1 (centres unmarked) [GT-04527, 3-(5-((4-(2,3-dichlorophenyl)piperazin-1-yl)methyl)-6-fluoro-1-oxoisoindolin-2-yl)piperidine-2,6-dione]	A (0% ≤ substrate protein remaining % ≤ 80%)	B (80%< substrate protein remaining %≤ 100%)	A (0% ≤ substrate protein remaining % ≤ 80%)	A (0% ≤ substrate protein remaining % ≤ 80%)	A (0% ≤ substrate protein remaining % ≤ 80%)	A (0% ≤ substrate protein remaining % ≤ 80%)	–	5 to 10 nM	500 to 1000 nM	1 to 5 nM	1 to 5 nM	10 to 50 nM	10 to 50 nM
Cc1cccc(N2CCN(Cc3ccc4c(c3)CN(C3CCC(=O)NC3=O)C4=O)CC2)n1 (centres unmarked) [GT-04530, 3-(5-((4-(6-methylpyridin-2-yl)piperazin-1-yl)methyl)-1-oxoisoindolin-2-yl)piperidine-2,6-dione]	A (0% ≤ substrate protein remaining % ≤ 80%)	A (0% ≤ substrate protein remaining % ≤ 80%)	A (0% ≤ substrate protein remaining % ≤ 80%)	A (0% ≤ substrate protein remaining % ≤ 80%)	A (0% ≤ substrate protein remaining % ≤ 80%)	A (0% ≤ substrate protein remaining % ≤ 80%)	0.5 to 1 µM	10 to 50 nM	5 to 10 nM	10 to 50 nM	10 to 50 nM	100 to 500 nM	50 to 100 nM
O=C1CCC(N2Cc3cc(CN4CCN(c5ccc(F)cn5)CC4)ccc3C2=O)C(=O)N1 (centres unmarked) [GT-04531, 3-(5-((4-(5-fluoropyridin-2-yl)piperazin-1-yl)methyl)-1-oxoisoindolin-2-yl)piperidine-2,6-dione]	A (0% ≤ substrate protein remaining % ≤ 80%)	A (0% ≤ substrate protein remaining % ≤ 80%)	A (0% ≤ substrate protein remaining % ≤ 80%)	A (0% ≤ substrate protein remaining % ≤ 80%)	A (0% ≤ substrate protein remaining % ≤ 80%)	A (0% ≤ substrate protein remaining % ≤ 80%)	0.5 to 1 µM	10 to 50 nM	5 to 10 nM	10 to 50 nM	10 to 50 nM	100 to 500 nM	100 to 500 nM
O=C1CCC(N2Cc3cc(CN4CCN(c5cc(Cl)c(Cl)cn5)CC4)ccc3C2=O)C(=O)N1 (centres unmarked) [GT-04533, 3-(5-((4-(4,5-dichloropyridin-2-yl)piperazin-1-yl)methyl)-1-oxoisoindolin-2-yl)piperidine-2,6-dione]	A (0% ≤ substrate protein remaining % ≤ 80%)	A (0% ≤ substrate protein remaining % ≤ 80%)	A (0% ≤ substrate protein remaining % ≤ 80%)	A (0% ≤ substrate protein remaining % ≤ 80%)	A (0% ≤ substrate protein remaining % ≤ 80%)	A (0% ≤ substrate protein remaining % ≤ 80%)	0.5 to 1 µM	1 to 5 nM	1 to 5 nM	5 to 10 nM	1 to 5 nM	50 to 100 nM	50 to 100 nM
Cc1cc(N2CCN(Cc3ccc4c(c3)CN(C3CCC(=O)NC3=O)C4=O)CC2)cs1 (centres unmarked) [GT-04549, 3-(5-((4-(5-methylthiophen-3-yl)piperazin-1-yl)methyl)-1-oxoisoindolin-2-yl)piperidine-2,6-dione]	A (0% ≤ substrate protein remaining % ≤ 80%)	A (0% ≤ substrate protein remaining % ≤ 80%)	A (0% ≤ substrate protein remaining % ≤ 80%)	A (0% ≤ substrate protein remaining % ≤ 80%)	A (0% ≤ substrate protein remaining % ≤ 80%)	A (0% ≤ substrate protein remaining % ≤ 80%)	0.5 to 1 µM	100 to 500 nM	5 to 10 nM	10 to 50 nM	5 to 10 nM	100 to 500 nM	100 to 500 nM
O=C1CCC(N2Cc3cc(CN4CC=C(c5cccc(Cl)c5Cl)CC4)ccc3C2=O)C(=O)N1 (centres unmarked) [GT-04550, 3-(5-((4-(2,3-dichlorophenyl)-3,6-dihydropyridin-1(2H)-yl)methyl)-1-oxoisoindolin-2-yl)piperidine-2,6-dione]	A (0% ≤ substrate protein remaining % ≤ 80%)	A (0% ≤ substrate protein remaining % ≤ 80%)	A (0% ≤ substrate protein remaining % ≤ 80%)	A (0% ≤ substrate protein remaining % ≤ 80%)	A (0% ≤ substrate protein remaining % ≤ 80%)	A (0% ≤ substrate protein remaining % ≤ 80%)	< 0.5 µM	< 1 nM	< 1 nM	< 1 nM	< 1 nM	1 to 5 nM	1 to 5 nM
O=C1CCC(N2Cc3cc(CN4CCC(c5ccnc(Cl)c5Cl)CC4)ccc3C2=O)C(=O)N1 (centres unmarked) [GT-04560, 3-(5-((4-(2,3-dichloropyridin-4-yl)piperidin-1-yl)methyl)-1-oxoisoindolin-2-yl)piperidine-2,6-dione]	A (0% ≤ substrate protein remaining % ≤ 80%)	A (0% ≤ substrate protein remaining % ≤ 80%)	A (0% ≤ substrate protein remaining % ≤ 80%)	A (0% ≤ substrate protein remaining % ≤ 80%)	A (0% ≤ substrate protein remaining % ≤ 80%)	A (0% ≤ substrate protein remaining % ≤ 80%)	0.5 to 1 µM	10 to 50 nM	10 to 50 nM	10 to 50 nM	10 to 50 nM	–	–

Reference: patent EP4745137A1 (Gluetacs Therapeutics (Shanghai) Co., Ltd., priority 2023, dated 2025)
